Source: ChEMBL document CHEMBL5360672, “Identification of Novel Dual-Target Estrogen Receptor α Degraders with Tubulin Inhibitory Activity for the Treatment of Endocrine-Resistant Breast Cancer” (J Med Chem, 2023)

Key:
[1] = Selectivity index, ratio of IC50 for cytotoxicity against human MCF-10A cells to IC50 for antiproliferative activity against human MCF7 cells; format: toxicity, cell-based; conditions: MCF-10A cells and MCF7 cells, read-out: Ratio IC50
MCF7 = test: Antiproliferative activity against ERalpha positive human MCF7 cells assessed as inhibition of cell proliferation incubated for 72 hrs by CCK8 assay; format: functional, cell-based; conditions: MCF7, 72 h
[2] = target: T1, Estrogen receptor (Homo sapiens) (UniProt P03372); test: Binding affinity to human ERalpha assessed as relative binding affinity incubated under vibration for 1 min followed by 2 hrs incubation under dark condition by fluorescence polarization assay relative to estradiol; conditions: time 121.0 min
T1 sequence (whole entry): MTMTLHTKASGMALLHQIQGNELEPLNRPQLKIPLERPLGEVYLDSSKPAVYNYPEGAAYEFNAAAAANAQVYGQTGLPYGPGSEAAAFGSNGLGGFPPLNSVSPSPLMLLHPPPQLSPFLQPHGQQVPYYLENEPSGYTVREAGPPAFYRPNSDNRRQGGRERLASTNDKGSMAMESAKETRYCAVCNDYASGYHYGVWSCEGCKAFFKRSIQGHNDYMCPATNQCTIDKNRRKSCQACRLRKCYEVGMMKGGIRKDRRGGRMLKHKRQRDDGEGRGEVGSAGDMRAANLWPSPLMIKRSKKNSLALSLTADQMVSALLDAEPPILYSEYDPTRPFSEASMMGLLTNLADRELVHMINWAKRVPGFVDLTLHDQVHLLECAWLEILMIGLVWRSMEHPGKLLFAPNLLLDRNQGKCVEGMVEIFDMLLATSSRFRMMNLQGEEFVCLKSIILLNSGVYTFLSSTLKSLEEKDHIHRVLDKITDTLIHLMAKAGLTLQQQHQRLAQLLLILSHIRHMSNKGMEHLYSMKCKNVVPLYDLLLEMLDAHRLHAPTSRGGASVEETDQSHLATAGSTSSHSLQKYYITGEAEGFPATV

[3] = target: Estrogen receptor beta (Homo sapiens) (UniProt Q92731); test: Binding affinity to human ERbeta assessed as relative binding affinity incubated under vibration for 1 min followed by 2 hrs incubation under dark condition by fluorescence polarization assay relative to estradiol; conditions: time 121.0 min
Sequence of Estrogen receptor beta (Homo sapiens) (Q92731 whole entry): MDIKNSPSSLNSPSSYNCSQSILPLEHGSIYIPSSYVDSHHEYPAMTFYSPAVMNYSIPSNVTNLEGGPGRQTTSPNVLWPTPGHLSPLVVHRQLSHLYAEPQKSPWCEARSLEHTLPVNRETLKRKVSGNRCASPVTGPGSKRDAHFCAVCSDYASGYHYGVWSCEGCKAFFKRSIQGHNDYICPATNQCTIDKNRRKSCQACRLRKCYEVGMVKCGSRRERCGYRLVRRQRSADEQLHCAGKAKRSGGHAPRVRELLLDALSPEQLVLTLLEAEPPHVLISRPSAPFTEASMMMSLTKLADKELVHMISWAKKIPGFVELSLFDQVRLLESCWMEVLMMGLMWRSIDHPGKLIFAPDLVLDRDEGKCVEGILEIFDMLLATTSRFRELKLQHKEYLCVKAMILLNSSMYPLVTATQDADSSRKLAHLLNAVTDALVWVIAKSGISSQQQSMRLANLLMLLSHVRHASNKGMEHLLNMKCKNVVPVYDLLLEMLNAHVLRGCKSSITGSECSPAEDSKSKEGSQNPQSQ

Homo sapiens = organism: Homo sapiens; test: Selectivity ratio of relative binding affinity for human ERalpha to relative binding affinity to human ERbeta
T47D = test: Antiproliferative activity against ERalpha positive human T47D cells assessed as inhibition of cell proliferation incubated for 72 hrs by CCK8 assay; format: functional, cell-based
[4] = Cytotoxicity against human MCF-10A cells assessed as inhibition of cell proliferation incubated for 72 hrs by CCK8 assay; format: toxicity, cell-based

Row | SMILES | IC50 (MCF7) | RBA [2] | RBA [3] | Selectivity ratio (Homo sapiens) | IC50 (T47D) | selectivity ratio [1] | IC50 at 72 h [4]
1 | COc1cc2c(c(OC)c1OC)-c1ccc(OC)c(=O)cc1[C@@H](NC(C)=O)CC2 [COLCHICINE] | 0.001 µM | – | – | – | 0.00028 µM | – | –
2 | N#C[Se]CC(=O)Nc1ccc(C2=C(c3ccc(O)cc3)C3CC(S(=O)(=O)Oc4ccccc4)C2O3)cc1 (stereo unspecified) | 2.76 µM | 0.57% | 0.24% | 2.38 | 24.6 µM | 14 | 38.6 µM
3 | N#C[Se]CCCCCC(=O)Nc1ccc(C2=C(c3ccc(O)cc3)C3CC(S(=O)(=O)Oc4cccc(C(F)(F)F)c4)C2O3)cc1 (stereo unspecified) | 0.57 µM | 0.17% | 0.3% | 0.57 | > 31 µM | 94.1 | 53.6 µM
4 | Cc1cccc(OS(=O)(=O)C2CC3OC2C(c2ccc(NC(=O)CCCCC[Se]C#N)cc2)=C3c2ccc(O)cc2)c1 (stereo unspecified) | 0.71 µM | 0.99% | 1.29% | 0.77 | 13.3 µM | 42.5 | 30.2 µM
5 | N#C[Se]CCCCCC(=O)Nc1ccc(C2=C(c3ccc(O)cc3)C3CC(S(=O)(=O)Oc4cccc(Cl)c4)C2O3)cc1 (stereo unspecified) | 0.7 µM | 4.08% | 0.1% | 40.8 | 4.09 µM | 42.4 | 29.7 µM
6 | Cc1ccccc1OS(=O)(=O)C1CC2OC1C(c1ccc(NC(=O)CCCCC[Se]C#N)cc1)=C2c1ccc(O)cc1 (stereo unspecified) | 0.62 µM | 14.1% | 3.12% | 4.53 | 2.23 µM | 16.5 | 10.2 µM
7 | N#C[Se]CCCCCC(=O)Nc1ccc(C2=C(c3ccc(O)cc3)C3CC(S(=O)(=O)Oc4ccccc4Cl)C2O3)cc1 (stereo unspecified) | 0.49 µM | 8.21% | 1.52% | 5.4 | 2.55 µM | 20.7 | 10.1 µM
8 | COc1ccccc1OS(=O)(=O)C1CC2OC1C(c1ccc(NC(=O)CCCCC[Se]C#N)cc1)=C2c1ccc(O)cc1 (stereo unspecified) | 0.49 µM | 16% | 1.29% | 12.4 | 1.8 µM | 15 | 7.37 µM
9 | N#C[Se]CCCCCC(=O)Nc1ccc(C2=C(c3ccc(O)cc3)C3CC(S(=O)(=O)Oc4ccccc4Br)C2O3)cc1 (stereo unspecified) | 0.86 µM | 2.21% | 0.18% | 12.3 | 1.71 µM | 8.78 | 7.55 µM
10 | N#C[Se]CCCCCCCC(=O)Nc1ccc(C2=C(c3ccc(O)cc3)C3CC(S(=O)(=O)Oc4ccccc4)C2O3)cc1 (stereo unspecified) | 1.71 µM | 0.71% | 2.06% | 0.34 | > 31 µM | 12 | 20.5 µM
11 | N#C[Se]CCCCCC(=O)Nc1ccc(C2=C(c3ccc(O)cc3)C3CC(S(=O)(=O)Oc4cccc5ccccc45)C2O3)cc1 (stereo unspecified) | 2.43 µM | 15.5% | 9% | 1.72 | 1.71 µM | 5.72 | 13.9 µM
12 | N#C[Se]CCCC(=O)Nc1ccc(C2=C(c3ccc(O)cc3)C3CC(S(=O)(=O)Oc4ccccc4)C2O3)cc1 (stereo unspecified) | 2.02 µM | 1.05% | 1.7% | 0.62 | 18.1 µM | 29.7 | 59.9 µM
13 | N#C[Se]CCCCCCOc1ccc(OS(=O)(=O)C2CC3OC2C(c2ccc(O)cc2)=C3c2ccc(O)cc2)cc1 (stereo unspecified) | 5.14 µM | 9.98% | 1.73% | 5.77 | 7.47 µM | 2.1 | 10.8 µM
14 | N#C[Se]CCCCCC(=O)Nc1ccc(C2=C(c3ccc(O)cc3)C3CC(S(=O)(=O)Oc4ccc5ccccc5c4)C2O3)cc1 (stereo unspecified) | 3 µM | 4.51% | 0.23% | 19.6 | > 31 µM | 7.52 | 22.6 µM
15 | N#C[Se]CCCCCC(=O)Nc1ccc(C2=C(c3ccc(O)cc3)C3CC(S(=O)(=O)Oc4ccccc4O)C2O3)cc1 (stereo unspecified) | 0.32 µM | 30.9% | 1.15% | 26.9 | 3.58 µM | 23.4 | 7.49 µM
16 | COc1cccc(OS(=O)(=O)C2CC3OC2C(c2ccc(NC(=O)CCCCC[Se]C#N)cc2)=C3c2ccc(O)cc2)c1 (stereo unspecified) | 2.49 µM | 12.1% | 0.35% | 34.7 | 3.21 µM | 7.99 | 19.9 µM
17 | N#C[Se]CCCCCC(=O)Nc1ccc(C2=C(c3ccc(O)cc3)C3CC(S(=O)(=O)Oc4ccccc4C(F)(F)F)C2O3)cc1 (stereo unspecified) | 0.35 µM | 23.1% | 5.79% | 10.6 | 1.77 µM | 36.9 | 12.9 µM

Continued, in another order:

Row | IC50 (MCF7) | RBA [2] | RBA [3] | Selectivity ratio (Homo sapiens) | IC50 (T47D) | SMILES | selectivity ratio [1] | IC50 at 72 h [4]
18 | 2.75 µM | 3.31% | 2.63% | 1.26 | 3.13 µM | Cc1ccc(OS(=O)(=O)C2CC3OC2C(c2ccc(NC(=O)CCCCC[Se]C#N)cc2)=C3c2ccc(O)cc2)cc1 (stereo unspecified) | 15 | 41.1 µM
19 | 2.84 µM | 4.43% | 1.61% | 2.75 | 3.02 µM | N#C[Se]CCCCCC(=O)Nc1ccc(C2=C(c3ccc(O)cc3)C3CC(S(=O)(=O)Oc4ccc(C(F)(F)F)cc4)C2O3)cc1 (stereo unspecified) | 5.72 | 16.2 µM
20 | 1.32 µM | 0.6% | 2.64% | 0.23 | 3.52 µM | N#C[Se]CCCCCC(=O)Nc1ccc(C2=C(c3ccc(O)cc3)C3CC(S(=O)(=O)Oc4ccc(Cl)cc4)C2O3)cc1 (stereo unspecified) | 8.94 | 11.8 µM
21 | 1.85 µM | 0.31% | 3.48% | 0.09 | 120 µM | N#C[Se]CCCCCC(=O)Nc1ccc(C2=C(c3ccc(O)cc3)C3CC(S(=O)(=O)Oc4ccc(Br)cc4)C2O3)cc1 (stereo unspecified) | 10.1 | 18.6 µM
22 | 1.29 µM | 14.2% | 0.91% | 15.6 | > 31 µM | N#C[Se]CCCCCC(=O)Nc1ccc(C2=C(c3ccc(O)cc3)C3CC(S(=O)(=O)Oc4cccc(O)c4)C2O3)cc1 (stereo unspecified) | > 46.5 | > 60 µM
23 | 1.18 µM | 2.05% | 3.74% | 0.55 | 1.43 µM | N#C[Se]CCCCCC(=O)Nc1ccc(C2=C(c3ccc(O)cc3)C3CC(S(=O)(=O)Oc4ccc(F)cc4)C2O3)cc1 (stereo unspecified) | 9.75 | 11.5 µM
24 | 1.22 µM | 4.72% | 0.78% | 6.05 | 3.21 µM | N#C[Se]CCCCCC(=O)Nc1ccc(C2=C(c3ccc(O)cc3)C3CC(S(=O)(=O)Oc4ccccc4)C2O3)cc1 (stereo unspecified) | > 49.2 | > 60 µM
25 | 2.62 µM | 0.97% | 0.05% | 19.4 | 1.97 µM | COc1ccc(OS(=O)(=O)C2CC3OC2C(c2ccc(NC(=O)CCCCC[Se]C#N)cc2)=C3c2ccc(O)cc2)cc1 (stereo unspecified) | 4.99 | 13.1 µM
26 | 1.23 µM | 0.59% | 0.31% | 1.9 | 2.84 µM | N#C[Se]CCCCCC(=O)Nc1ccc(C2=C(c3ccc(O)cc3)C3CC(S(=O)(=O)Oc4cccc(Br)c4)C2O3)cc1 (stereo unspecified) | 18.5 | 22.7 µM
27 | 1.5 µM | 7.83% | 0.73% | 10.7 | 4.98 µM | N#C[Se]CCCCCC(=O)Nc1ccc(C2=C(c3ccc(O)cc3)C3CC(S(=O)(=O)Oc4ccc(O)cc4)C2O3)cc1 (stereo unspecified) | 6.94 | 10.4 µM
28 | 0.78 µM | 3.31% | 0.53% | 6.25 | 2.05 µM | N#C[Se]CCCCCC(=O)Nc1ccc(C2=C(c3ccc(O)cc3)C3CC(S(=O)(=O)Oc4cccc(F)c4)C2O3)cc1 (stereo unspecified) | 22.4 | 17.5 µM
